Measured values taken from US20230220047A1, “PEPTIDES FOR TREATMENT OF SEPSIS AND CANCER” (NORWEGIAN UNIVERSITY OF SCIENCE AND TECHNOLOGY (NTNU), priority 2020, published 2023).

Legend:
Format in all cases: cell-based, human
[1] = tested on: TLR4; assay: ELISA/Bioplex of LPS-mediated cytokine secretion by THP-1 cells; details: for LPS-mediated secretion of IL-18, IL-6, IL-8 and TNF (27-plex Bioplex): 10 μM
Method: (A) Results of LDH assay and ELISAs analysing cytokine secretion after 5 h of stimulation with LPS (graphs show mean values for at least 3 biological replicates). […] In the tables average values are presented based on 3-5 biological replicates for each experiment. […]
TNF in supernatants was detected using a human TNF-alpha DuoSet ELISA (DY210) (R&D Systems); CXCL10 using a DuoSet ELISA (DY266) (R&D Systems); IL-1β using a BD OptEiA human IL-1β ELISA SetII (#557953, BD Biosciences): IFNβ using a VeriKine-HS™ Human Interferon-Beta Serum ELISA Kit (#41415) from PBL Assay Science. Some supernatants were also analysed by multiplex cytokine assay (Bio-Plex; Bio-Rad Laboratories Inc.) for IL-1β, IL-6, IL-8, CXCL10/IP-10. Results are presented as mean and SD for biological replicates for a representative donor (primary human macrophages), or at least three independent experiments for the model cell line THP-1. Statistical significance was evaluated in GraphPad Prizm 5.03. Data distribution was assumed to be normal but this was not formally tested. The difference between the two groups was determined by two-tailed t test.

[2] = tested on: TLR4; assay: qPCR of LPS-mediated cytokine mRNA expression in THP-1 macrophages; details: for IFNβ and CXCL10 mRNA expression: 30 min pre-treatment, LPS
Method: SW480 (ATCC CCL-228) and Jurkat (ATCC Clone E6-1; TIB-152) cells were cultured in RPMI 1640 (Sigma-Aldrich, Schnelldorf, Germany) supplemented with 10% heat-inactivated FCS, penicillin/streptomycin (Life Technologies) and 20 mM L-Glutamine. THP-1 cells (ATCC TIB-202) were cultured in RPMI-1640 (high-glucose, ATCC) supplemented with 10% heat inactivated foetal calf serum (FCS), 100 nM penicillin/streptomycin and 5 μM β-mercaptoethanol (Sigma). THP-1 cells were differentiated with 60 ng/ml phorbol 12-myristate 13-acetate (PMA, Sigma) for 72 h, followed by 24 or 48 h in medium without PMA.
Total RNA was isolated from the cells using Qiazol reagent #79306 from QIAGEN, and chloroform extraction followed by purification on RNeasy Mini columns with DNAse digestion (Qiagen). cDNA was prepared using the Maxima First Strand cDNA Synthesis Kit for quantitative real-time polymerase chain reaction (RT-qPCR) (Thermo Fisher Scientific) according to the manufacturer's protocol. qPCR was performed using the PerfeCTa qPCR FastMix (Quanta Biosciences) in replicates and cycled in a StepOnePlus™ Real-Time PCR cycler. The following TaqMan® Gene Expression Assays (Applied Biosystems®) were used: IFNβ (Hs01077958_s1), TNF (Hs00174128_m1), TBP (Hs00427620_m1), CXCL10 (Hs01124251_g1), IL-6 (Hs00174131_m1) and IL-1β (Hs01555410_m1), for human cells; Ifnβ (Mm00439552_s1), Tnf (Mm00443258_m1), Tbp (Mm01277042_m1) and II-1β (Mm00434228_m1), for mouse cells. No RT controls were negative. The level of TBP mRNA was used for normalisation and results presented as relative expression compared to the control untreated sample. Relative expression was calculated using Pfaffl's mathematical model (Pfaffl, Nucleic Acids Research 29(9): e45, 2001). Results are presented as the mean and SD expression fold change for biological replicates relative to non-stimulated cells. Statistical significance was evaluated in GraphPad Prizm 5.03. Data distribution was assumed to be normal but this was not formally tested. The difference between the two groups was determined by two-tailed t test.

[3] = tested on: TLR4; assay: Whole blood assay, LPS stimulation
From the text: […] Results are for at least 6 donors. The Wilcoxon matched-pairs signed rank test was used for statistical analysis between 2 groups in Prizm 8.2.1. In each graph, circles indicate whole blood pre-treated with water, squares indicate blood pre-treated with control peptide (average for treatment with Pen and C3-Pen), and triangles indicate pre-treatment with P7-Pen.
To evaluate the effect of peptides in an ex vivo system, a human whole blood model was used. Peripheral venous blood was drawn from 6 healthy donors into sterile polypropylene tubes (Thermo Scientific™ Nunc™ Biobanking and Cell Culture Cryogenic Tubes) containing the anti-coagulant Lepirudin (Refludan®; Celgene). […] Peptide solution or DPBS was distributed in equal volume (50 μL) to 1.8 mL sterile polypropylene tubes (Thermo Scientific™Nunc™ Biobanking and Cell Culture Cryogenic Tubes). […] Stimulation solutions were made by diluting K12 LPS or CL075 in DPBS to obtain a final concentration in whole blood of 100 ng/mL (LPS) or 1 μg/mL (CL075) after addition of 50 μL stimulation solution or DPBS. […] Tubes were incubated at 37° C. under constant rotation for 4 h. Finally, plasma was isolated from the whole blood specimens by centrifugation, collected in 96 well plates (Corning® 96 Well CellBIND® Microplates), and stored at −20/−80° C. until analysis by multiplex/27-plex cytokine assay or IFNβ ELISA (VeriKine-HS Human Interferon Beta Serum ELISA Kit; pbl Assay Science).

Substance | inhibitory activity towards LPS-induced CXCL10, TNF and IL-1β secretion (ELISA) ([1]; 15 μM, 30 min pre-treatment, LPS 100 ng/ml 5 h, relative to P7-Pen) | IFNβ and CXCL10 mRNA expression ([2]; 10 μM) | inhibition of CXCL10 secretion ([1]; 10 μM applied 30 min before or simultaneously with LPS, LPS 6 h) | inhibitory effect on CXCL10 secretion ([1]; 10 μM applied 1 h after addition of LPS) | LPS-mediated secretion of IL-18, IL-6, IL-8 and TNF (27-plex Bioplex) ([1]; 30 min pre-treatment) | TLR4-mediated IFNβ release by whole blood cells ([3]; 20 μM, LPS 100 ng/ml 4 h) | LPS/TLR4-induced TNF, IL-6 and IL-1β secretion ([3]; 20 μM, compared to control peptides) | LPS-mediated IFNβ, CXCL10 and TNF expression ([2]; 10 μM, 1 h pre-treatment, LPS 100 ng/ml) | expression of IFNβ, CXCL10 and TNF mRNA ([2]; 20 μM, 1 h pre-treatment, LPS 100 ng/ml) | LPS-induced cytokine expression levels (IFNβ, TNF and CXCL10 mRNA) ([2]; peptide removed from media after pre-treatment, before LPS stimulation (data not shown)) | LPS-mediated TNF secretion (ELISA) ([1]; not shown) | LPS-mediated IFNβ secretion by whole blood cells ([3]; pilot assay, 10 μM, LPS 100 ng/ml)
Ac-ITVAASVTLTGRQIKIWFQNRRMKWKK-NH2 [Peptide P7-A4-Pen] | least effect on peptide activity | – | – | – | – | – | – | – | – | – | – | –
Ac-ITVYASVTLTGRQIKIWFQNRRMKWKK-NH2 [Peptide P7-Pen] | – | reduced | very effective | reduced | inhibitory effect | effectively abrogated | significant reduction | – | – | – | – | –
Ac-ITVYASVTLTGRRRRRRRRRRR-NH2 [Peptide P7-Arg11] | – | reduced | – | – | inhibitory effect | – | – | clear inhibitory effect | totally inhibited | No changes | prevented TNF secretion | inhibited
